The source of these data is US20110207760A1, “SN-38 COMPOSITIONS” (priority 2010, published 2011).

The nature of this data set: Pharmacokinetics of SN-38 and SN-38G after i.v. dosing of SN-38 in 40% SBECD. As to conditions: rat, i.v. The format is in vivo, Female Sprague-Dawley rats. As to the method:
Female Sprague-Dawley rats, 4 animals per group received i.v. injections of SN-38 (doses 0.65 mg/kg and 2 mg/kg) in 40% SBECD. The SN-38 solution for the treatment was prepared by the dilution of concentrated composition of the Example 1 with water. The blood plasma samples were collected from each group of animals, extracted using liquid extraction with cold methanol/acetonitrile mixture (1:1 v/v), and analyzed using a HPLC method with fluorescent detection. The results, including levels of SN-38 and SN-38G in plasma and calculated values of area under the curve (AUC) for SN-38 and SN-38G are presented in Tables 5 and 6 below.

Usually AUC stands for concentration integrated over time.

`CCc1c2c(nc3ccc(O[C@@H]4O[C@H](C(=O)O)[C@@H](O)[C@H](O)[C@H]4O)cc13)-c1cc3c(c(=O)n1C2)COC(=O)[C@]3(O)CC` [SN-38G, SN-38 glucuronide]: the AUC is 275 ng·h/mL (dosing SN-38 0.65 mg/kg in 40% SBECD) and 1085 ng·h/mL (dosing SN-38 2 mg/kg in 40% SBECD). Further, the Plasma levels is listed as 266.5 ng/mL (dosing SN-38 0.65 mg/kg in 40% SBECD, 0.17 h); 150.7 ng/mL (dosing SN-38 0.65 mg/kg in 40% SBECD, 0.5 h); 97.1 ng/mL (dosing SN-38 0.65 mg/kg in 40% SBECD, 0.75 h); 61.5 ng/mL (dosing SN-38 0.65 mg/kg in 40% SBECD, 1 h); 15.7 ng/mL (dosing SN-38 0.65 mg/kg in 40% SBECD, 3 h); 6.0 ng/mL (dosing SN-38 0.65 mg/kg in 40% SBECD, 6 h). The Plasma levels by setting is: (dosing SN-38 2 mg/kg in 40% SBECD, 0.17 h) 1282.0 ng/mL; (dosing SN-38 2 mg/kg in 40% SBECD, 0.5 h) 747.7 ng/mL; (dosing SN-38 2 mg/kg in 40% SBECD, 0.75 h) 289.8 ng/mL; (dosing SN-38 2 mg/kg in 40% SBECD, 1 h) 239.9 ng/mL; (dosing SN-38 2 mg/kg in 40% SBECD, 3 h) 27.6 ng/mL; (dosing SN-38 2 mg/kg in 40% SBECD, 6 h) 18.5 ng/mL.
